The results in this text go back to PubChem BioAssay (NCI).

Holding throughout (test): NCI-60 cell line screen, 48 h
In assay [1] the test system is K-562 leukemia.
Assay [2] has as its system SNB-19 CNS.
The subject of assay [3] is SR leukemia.
Assay [4] has as its system NCI-H522 lung.
Assay [5] concerns UO-31 renal.
The subject of assay [6] is EKVX NSCLC.
Assay [7] has as its system MOLT-4 leukemia.

Structures are written as SMILES.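 Results reflect a 48-hour exposure of cells in 96-well plates to compound at five concentrations. GI50 = concentration required for 50% inhibition of growth. TGI marks complete inhibition of growth.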 Bounds are passed on as bounds.

As to `CCN(CC)c1ccc2c(c1)Nc1cc(=C(C#N)C#N)c3ccccc3c1=N2`, the TGI in assay [1], in assay [2], in assay [3], in assay [4], in assay [5] and in assay [6] was more than 100 µM in each case. The molecule also yielded a TGI in assay [7] of more than 100 µM.

Turning to `Cc1cc2c(=O)c3ccccc3[nH]c2c(C(=O)O)c1C`, the TGI in assay [1] is more than 100 µM; in assay [2] it was more than 100 µM; in assay [3], more than 100 µM; in assay [5], 87.5 µM; in assay [6], more than 100 µM; in assay [7], more than 100 µM.

For the molecule `CN=C1SC(=Nc2ccc(N(C)C)cc2)N1C`, the TGI is more than 100 µM in assay [1]; more than 100 µM in assay [2]; more than 100 µM in assay [3]; 59.3 µM in assay [4]; more than 100 µM in assay [5]; 72.7 µM in assay [6]. The same molecule yielded a TGI in assay [7] of more than 100 µM.

Turning to `O=C(OC[C@H]1O[C@@H](OC(=O)c2cc(O)c(O)c(O)c2)[C@H](OC(=O)c2cc(O)c(O)c(O)c2)[C@@H](OC(=O)c2cc(O)c(O)c(O)c2)[C@@H]1OC(=O)c1cc(O)c(O)c(O)c1)c1cc(O)c(O)c(O)c1`, the TGI in assay [1] is more than 100 µM; in assay [2] it was more than 100 µM; in assay [3], more than 100 µM; in assay [4], 14.2 µM; in assay [5] it was 19.2 µM; in assay [6], 70.9 µM. In assay [7], this molecule displayed a TGI of 86.5 µM.

`C1=CC=C2NCCOCCNC3=CC=CC=CC3=NCCOCCN=C2C=C1`: the TGI in assay [1], in assay [2], in assay [4], in assay [5], in assay [6] and in assay [7] was more than 100 µM each time.

For `COc1ccc(/C=C2\C(=O)N(C(=O)Cc3ccccc3)N=C2C)cc1OC`, the TGI in assay [1], in assay [2], in assay [3], in assay [4], in assay [5] and in assay [6] was more than 100 µM each time. The same molecule gave a TGI in assay [7] of more than 100 µM.

Turning to `CC(=O)O[C@@H]1C2C(=O)OC(=O)C2C2CCC[C@]23O[C@H]13` (stereo partly drawn), the TGI in assay [1], in assay [2], in assay [3], in assay [4], in assay [5] and in assay [7] was more than 100 µM each time.

In the case of `Cc1c2cc[n+](C)cc2c(C)c2c1[nH]c1ccc(O)c(OCC(F)(F)F)c12`, the TGI was found to be 17 µM in assay [1]; 5.33 µM in assay [2]; 3.55 µM in assay [4]; 25.6 µM in assay [5]; 20.1 µM in assay [6]; 22.1 µM in assay [7].

`O=[N+]([O-])c1ccc2c(c1)[O][Sn]([I])([I])[O]2`: the GI50 in assay [1] is more than 100 µM; in assay [2], more than 100 µM; in assay [4], 61.4 µM; in assay [5], more than 100 µM; in assay [6], more than 100 µM; in assay [7], 68.4 µM. The TGI in assay [1], in assay [2], in assay [4], in assay [5], in assay [6] and in assay [7] was more than 100 µM each time.

For the molecule `O=c1ccc(=O)c2c(=O)c3ccccc3c(=O)c1=2`, the TGI in assay [1], in assay [2], in assay [4], in assay [5], in assay [6] and in assay [7] was more than 100 µM throughout.

For the molecule `O=C1CCC(O)=C1O`, the TGI in assay [1], in assay [2], in assay [4], in assay [6] and in assay [7] was more than 100 µM throughout.

On to `CC1(C)C2CCC3(C2)CS(=O)(=O)N2OC231` (stereo not drawn), for which the TGI was 54.6 µM in assay [1]; more than 100 µM in assay [2]; more than 100 µM in assay [3]; 26.9 µM in assay [4]; 31.3 µM in assay [5]; 30.3 µM in assay [6].

With `CCOC(=O)[C@H]1Nc2ccc(OC)cc2C2c3ccccc3CC21` (stereo partly drawn), the TGI in assay [1], in assay [2], in assay [3], in assay [4], in assay [5] and in assay [7] was more than 100 µM each time.

`Cc1c(Cl)cccc1NC(=O)CC1C(=O)Nc2ccccc2S1(=O)=O` (stereo not drawn): the TGI was found to be 50.1 µM in assay [1]; 52.3 µM in assay [2]; 30.3 µM in assay [3]; 32.1 µM in assay [5]; 70 µM in assay [6]; 24.3 µM in assay [7].

On to `COC(=O)C1=C(CS(=O)c2ccccc2[N+](=O)[O-])ON(C)C1c1ccccc1` (stereo not drawn), for which the TGI is 78 µM in assay [1]; more than 100 µM in assay [2]; 38 µM in assay [4]; more than 100 µM in assay [5]; more than 100 µM in assay [6]; more than 100 µM in assay [7].

For `Nc1nc(CCC(=O)Nc2cccc(C(F)(F)F)c2)cc(-c2ccc3ccccc3c2)n1`, the TGI in assay [1], in assay [2], in assay [3], in assay [4], in assay [5] and in assay [6] was more than 100 µM in each case. In addition, the TGI in assay [7] was more than 100 µM.

`C[C-](O)O.O/C(=C\[C-](O)c1ccccc1)c1ccccc1.O/C(=C\[C-](O)c1ccccc1)c1ccccc1.[Nd+3]` (stereo not drawn): the GI50 is 3.78 µM in assay [1]; 7.83 µM in assay [2]; 3.59 µM in assay [4]; 3.73 µM in assay [5]; 8.09 µM in assay [6]; 3.89 µM in assay [7]. In addition, the TGI in assay [1] was determined as 16.4 µM; in assay [2], 50 µM; in assay [4], 28.9 µM; in assay [5] it was 16 µM; in assay [6], 55 µM; in assay [7], 28.7 µM.
